Measurements published in the supplement of paper PMC10307832.

What was measured:
Test in all cases: relative viability (nuclei count vs DMSO), 5 days (fraction); higher = more cells survive
[1] = compound: C1=CC(=CC=C1NC(=S)NNC2=C(C=C(C=C2[N+](=O)[O-])C(F)(F)F)[N+](=O)[O-])F [Kobe2602] + Nc1nc2[nH]cc(CCc3ccc(C(=O)N[C@@H](CCC(=O)O)C(=O)O)cc3)c2c(=O)[nH]1 [Pemetrexed] (partner 0.2 µM)
Outline: (§1)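 Lung cancer cell lines were pin-tool dosed in 1536-well plates on the day after seeding, with either a lone drug or a fixed anchor-drug dose plus five library-drug doses (not always all listed) in √10 steps. Nuclei were counted on 4× images after 5 days. Relative viability is the ratio of treated-well to vehicle-well nuclei counts, with each value a median of duplicate plates.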

[2] = compound: C1=CC(=CC=C1NC(=S)NNC2=C(C=C(C=C2[N+](=O)[O-])C(F)(F)F)[N+](=O)[O-])F [Kobe2602] + O=C(CCCCCCC(=O)Nc1ccccc1)NO [Vorinostat] (partner 1 µM)
Outline: as §1

[3] = compound: O[C@@H](COc1cccc2ncccc12)CN1CCN([C@@H]2c3ccccc3[C@@H]3[C@H](c4ccccc42)C3(F)F)CC1 [Zosuquidar] + Cc1cc(Nc2cc(N3CCN(C)CC3)nc(Sc3ccc(NC(=O)C4CC4)cc3)n2)n[nH]1 [Tozasertib] (partner 0.1 µM)
Outline: as §1

[4] = compound: O[C@@H](COc1cccc2ncccc12)CN1CCN([C@@H]2c3ccccc3[C@@H]3[C@H](c4ccccc42)C3(F)F)CC1 [Zosuquidar] + O=C(c1cc(Cc2n[nH]c(=O)c3ccccc23)ccc1F)N1CCN(C(=O)C2CC2)CC1 [Olaparib] (partner 8 µM)
Outline: as §1

Cell Line | relative viability ([1]; first compound 0.2 µM) | relative viability ([1]; first compound 0.6325 µM) | relative viability ([1]; first compound 6.325 µM) | relative viability ([1]; first compound 20 µM) | relative viability ([2]; first compound 0.2 µM) | relative viability ([2]; first compound 0.6325 µM) | relative viability ([2]; first compound 6.325 µM) | relative viability ([2]; first compound 20 µM) | relative viability ([3]; first compound 0.01 µM) | relative viability ([3]; first compound 0.03162 µM) | relative viability ([3]; first compound 0.1 µM) | relative viability ([3]; first compound 0.3162 µM) | relative viability ([3]; first compound 1 µM) | relative viability ([4]; first compound 0.01 µM) | relative viability ([4]; first compound 0.03162 µM) | relative viability ([4]; first compound 0.3162 µM) | relative viability ([4]; first compound 1 µM) | relative viability ([1]; first compound 2 µM) | relative viability ([2]; first compound 2 µM) | relative viability ([4]; first compound 0.1 µM)
LCLC-97TM1 | 0.204 | 0.15 | 0.14 | 0.161 | 0.692 | 0.893 | 0.964 | 0.722 | 0.202 | 0.266 | 0.167 | 0.208 | 0.212 | 0.307 | 0.453 | 0.335 | 0.515 |  |  | 
LU99A | 0.179 | 0.169 | 0.207 | 0.163 | 0.491 | 0.493 | 0.51 | 0.53 | 0.215 | 0.229 | 0.257 | 0.254 | 0.271 | 0.239 | 0.264 | 0.273 | 0.254 | 0.186 | 0.539 | 0.285
NCI-H1299 |  |  |  |  |  |  |  |  |  |  |  |  |  | 0.982 | 0.976 | 0.963 | 1.01 |  |  | 0.993
NCI-H1355 | 1.06 | 1.07 | 0.983 | 0.968 | 0.589 | 0.687 | 0.588 | 0.622 | 0.527 | 0.542 | 0.623 | 0.612 | 0.519 | 0.677 | 0.709 | 0.826 | 0.809 | 0.992 | 0.577 | 0.791
HARA | 0.228 | 0.296 | 0.239 | 0.313 | 0.529 | 0.553 | 0.509 | 0.767 | 0.111 |  | 0.112 | 0.0991 | 0.102 | 1.13 | 0.804 | 0.936 | 0.93 | 0.255 | 0.422 | 0.905
LXF-289 | 0.871 | 0.896 | 0.861 | 0.896 | 0.677 | 0.776 | 0.659 | 0.775 | 0.244 | 0.2 | 0.179 | 0.222 | 0.187 | 1.01 | 1.03 | 1.09 | 1 | 0.88 | 0.75 | 1.09
201T | 0.353 | 0.366 | 0.379 | 0.288 | 0.959 | 0.938 | 1.03 | 1.1 | 0.876 | 0.907 | 0.888 | 0.993 | 0.854 | 0.801 | 0.821 | 0.836 | 0.862 | 0.341 | 0.997 | 0.816
HCC-827 | 0.293 | 0.241 | 0.261 | 0.261 | 0.891 | 0.739 | 0.892 | 0.945 | 0.413 | 0.369 | 0.401 | 0.386 | 0.386 | 0.688 | 0.567 | 0.65 | 0.622 | 0.281 | 0.804 | 0.518
NCI-H1703 |  |  |  |  |  |  |  |  |  |  |  |  |  | 0.413 | 0.421 | 0.858 | 0.451 |  |  | 0.394
NCI-H1975 | 0.271 | 0.306 | 0.294 | 0.286 | 0.68 | 0.74 | 0.678 | 0.701 | 0.74 | 0.775 | 1.01 | 0.803 | 0.787 | 0.722 | 0.753 | 0.734 | 0.866 | 0.265 | 0.626 | 0.784
